The values below come from US20260364089A1, “PYRIDOPYRIMIDINE KRAS INHIBITORS” (Treeline Biosciences, Inc., priority 2022, published 2026).

Like-named read-outs stand apart in the source and are kept apart here.

This test concerns the target T1, KRas G12V (Homo sapiens, UniProt P01116, G12V).
T1 construct: Biotinylated KRas G12V (aa 1-169) loaded with GDP nucleotide; biotin (biotinylated)
Put plainly: SOS1-Catalyzed Nucleotide Exchange Assay, KRas G12V (Method 2). The format is biochemical. The settings on record: 5 nM KRas G12V (aa 1-169, GDP-loaded), 50 nM SOS1. The protocol:
KRas G12V [Method 2]: Compounds were pre-dispensed via Echo liquid handling (acoustic, touch-free) to generate assay ready plates (ARP). More precisely, a 10-point concentration response curve for each compound was prepared with appropriate top concentration (1 μM, 10 μM, 100 μM). Biotinylated KRas G12V (aa 1-169) loaded with GDP nucleotide and Streptavidin-Europium (SA-EU, Columbia Biosciences) were preincubated in assay buffer (20 mM HEPES pH 7.4, 150 mM NaCl, 5 mM MgCl2, 1 mM DTT, 0.01% Brij-35, 0.3 mg/mL BSA) on ice for 30 min. Separately SOS1 (aa 546-1049) and EDA-GTP-DY647P1 (Jena Bioscience) were preincubated in assay buffer on ice for 30 min. After 30 minutes of incubation for the assay components, 5 μL buffer and 5 μL of KRas G12V-SA-Eu were added to each well of the ARP. After a further 30 min, 5 μL of SOS1-EDA-GTP-D467P1 was added to start the nucleotide exchange reaction. Final concentration in the assay were 5 nM KRas G12V, 50 nM SOS1 (aa 564-1049). The reaction was allowed to proceed for 60-90 minutes after which the plate was read on a plate reader. After normalization of the raw data, the data was fit to a four-parameter logistic curve.

Setting [1] is: Method 2, B, read-out: KRas G12V IC50 (nM) (Method 2, B).
Setting [2] is: Method 2, A, read-out: KRas G12V IC50 (nM) (Method 2, A).

T1 sequence (P01116 1-169 G12V): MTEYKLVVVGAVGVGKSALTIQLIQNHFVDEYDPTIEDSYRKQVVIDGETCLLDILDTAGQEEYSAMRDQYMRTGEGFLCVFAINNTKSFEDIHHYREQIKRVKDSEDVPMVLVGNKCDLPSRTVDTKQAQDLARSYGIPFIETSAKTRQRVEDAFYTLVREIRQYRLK

On to `Nc1cc2c(c(Cl)c1F)CCCCC(=O)NCCC1(O)CCCN(C1)c1nc(OC[C@@]34CCCN3C[C@H](F)C4)nc3c(F)c-2c(F)cc13` (stereo partly drawn) [Compound 183a, 3^5-amino-3^3-chloro-2^6,2^8,3^4-trifluoro-2^2-(((2R,7aS)-2-fluorotetrahydro-1H-pyrrolizin-7a(5H)-yl)methoxy)-1^3-hydroxy-9-aza-2(4,7)-quinazolina-1(1,3)-piperidina-3(1,2)-benzenacycloundecaphan-8-one], for which the IC50 (commonly the point on the concentration scale where inhibition reaches its midpoint) under setting [1] fell in the range of 100 to 1000 nM.
On the same count and under the same terms, the result for `Nc1cc2c(c(Cl)n1)CCCCC(=O)NCCC1(O)CCCN(C1)c1nc(OC[C@@]34CCCN3C[C@H](F)C4)nc3c(F)c-2ccc13` (stereo partly drawn) [Compound 187a, 1^6-amino-1^2-chloro-2^8-fluoro-2^2-(((2R,7aS)-2-fluorotetrahydro-1H-pyrrolizin-7a(5H)-yl)methoxy)-3^3-hydroxy-6-aza-2(7,4)-quinazolina-1(4,3)-pyridina-3(1,3)-piperidinacycloundecaphan-7-one] reads 1000 to 10000 nM.
With `Nc1cc2c3c(c(F)ccc3c1)CCCC(=O)NCCC1CCCN(C1)c1nc(OC[C@@]34CCCN3C[C@H](F)C4)nc3c(F)c-2ccc13` (stereo partly drawn) [Compound 190a, 3^3-amino-2^8,3^7-difluoro-2^2-(((2R,7aS)-2-fluorotetrahydro-1H-pyrrolizin-7a(5H)-yl)methoxy)-8-aza-2(4,7)-quinazolina-1(1,3)-piperidina-3(1,8)-naphthalenacyclodecaphan-7-one], the 50% inhibitory concentration (IC50) by setting is: under setting [2], 100 to 1000 nM; under setting [1], 100 to 1000 nM.
As for `O=C1CCCCc2c(Cl)cc3[nH]ncc3c2-c2ccc3c(nc(OC[C@@]45CCCN4C[C@H](F)C5)nc3c2F)N2CCCC(CCN1)C2` (single isomer, unassigned) [Compound 202b], under setting [1], the IC50 was at most 100 nM.
Consider `Nc1cc2c(c(C(F)(F)F)c1)CCCCC(=O)NCCC1CCCN(C1)c1nc(OC[C@@]34CCCN3C[C@H](F)C4)nc3c(F)c-2ncc13` (stereo partly drawn) [Compound 181a, 3^5-amino-2^8-fluoro-2^2-(((2R,7aS)-2-fluorotetrahydro-1H-pyrrolizin-7a(5H)-yl)methoxy)-3^3-(trifluoromethyl)-9-aza-2(4,7)-pyrido[4,3-d]pyrimidina-1(1,3)-piperidina-3(1,2)-benzenacycloundecaphan-8-one], for which the IC50 under setting [1] was in the range of 1000 to 10000 nM.
On the same count and under the same terms, then `O=C1CCCCc2c(Cl)cc3[nH]ncc3c2-c2c(F)cc3c(nc(OC[C@@]45CCCN4C[C@H](F)C5)nc3c2F)N2CCOCC(CN1)C2` (stereo partly drawn) [Compound 200a, 3^6-chloro-2^6,2^8-difluoro-2^2-(((2R,7aS)-2-fluorotetrahydro-1H-pyrrolizin-7a(5H)-yl)methoxy)-3^1H-9-aza-1(4,6)-oxazepana-2(4,7)-quinazolina-3(4,5)-indazolacyclodecaphan-8-one], with at most 100 nM.
The same measure, in the same setting: the result for `Nc1cc2c(c(Cl)c1F)CCCCC(=O)NCC1COCCN(C1)c1nc(OC[C@@]34CCCN3C[C@H](F)C4)nc3c(F)c-2c(F)cc13` (stereo partly drawn) [Compound 184a, 3^5-amino-3^3-chloro-2^6,2^8,3^4-trifluoro-2^2-(((2R,7aS)-2-fluorotetrahydro-1H-pyrrolizin-7a(5H)-yl)methoxy)-9-aza-1(4,6)-oxazepana-2(4,7)-quinazolina-3(1,2)-benzenacyclodecaphan-8-one] reads 100 to 1000 nM; that for `O=C1CCCc2c(F)ccc3cc(O)cc(c23)-c2ncc3c(nc(OC[C@@]45CCCN4C[C@H](F)C5)nc3c2F)N2CCCC(O)(CCN1)C2` (stereo partly drawn) [Compound 136a, 2^8,3^7-difluoro-2^2-(((2R,7aS)-2-fluorotetrahydro-1H-pyrrolizin-7a(5H)-yl)methoxy)-1^3,3^3-dihydroxy-8-aza-2(4,7)-pyrido[4,3-d]pyrimidina-1(1,3)-piperidina-3(1,8)-naphthalenacyclodecaphan-7-one], at most 100 nM.
Regarding `Nc1cc2c(cc1F)CCCCC(=O)NCCC1CCCN(C1)c1nc(OC[C@@]34CCCN3C[C@H](F)C4)nc3c(F)c-2ncc13` (single isomer, unassigned) [Compound 159b], the IC50 under setting [1] was 1000 to 10000 nM.
With `O=C1CCCCc2c(Cl)cc3[nH]ncc3c2-c2ncc3c(nc(OC[C@@]45CCCN4C[C@H](F)C5)nc3c2F)N2CCCC(CCN1)C2` (stereo partly drawn) [Compound 196a, 1^6-chloro-2^8-fluoro-2^2-(((2R,7aS)-2-fluorotetrahydro-1H-pyrrolizin-7a(5H)-yl)methoxy)-1^1H-6-aza-2(7,4)-pyrido[4,3-d]pyrimidina-1(4,5)-indazola-3(1,3)-piperidinacycloundecaphan-7-one], the 50% inhibitory concentration (IC50) under setting [1] is at most 100 nM.
As for `Nc1cc2c(c(Cl)c1F)CCCCC(=O)NCC1COCCN(C1)c1nc(OC[C@@]34CCCN3C[C@H](F)C4)nc3c(F)c-2ncc13` (stereo partly drawn) [Compound 182a, 3^5-amino-3^3-chloro-2^8,3^4-difluoro-2^2-(((2R,7aS)-2-fluorotetrahydro-1H-pyrrolizin-7a(5H)-yl)methoxy)-9-aza-1(4,6)-oxazepana-2(4,7)-pyrido[4,3-d]pyrimidina-3(1,2)-benzenacyclodecaphan-8-one], the IC50 under setting [1] was in the range of 100 to 1000 nM.
For `O=C1CCCCc2c(Cl)cc(O)cc2-c2ncc3c(nc(OC[C@@]45CCCN4C[C@H](F)C5)nc3c2F)N2CCCC(O)(CCN1)C2` (single isomer, unassigned) [Compound 140c], under setting [1], the IC50 was at most 100 nM.
Consider `O=C1CCCc2c(F)ccc3cccc(c23)-c2ccc3c(nc(OC[C@@]45CCCN4C[C@H](F)C5)nc3c2F)N2CCCC(CCN1)C2` (stereo partly drawn) [Compound 191a, 2^8,3^7-difluoro-2^2-(((2R,7aS)-2-fluorotetrahydro-1H-pyrrolizin-7a(5H)-yl)methoxy)-8-aza-2(4,7)-quinazolina-1(1,3)-piperidina-3(1,8)-naphthalenacyclodecaphan-7-one], for which the IC50 under setting [2] lay within 100 to 1000 nM and the IC50 under setting [1] is at most 100 nM.
With `O=C1CCCCc2c(Cl)cc3[nH]ncc3c2-c2ccc3c(nc(OC[C@@]45CCCN4C[C@H](F)C5)nc3c2F)N2CCCC(O)(CCN1)C2` (stereo partly drawn) [Compound 199a, 1^6-chloro-2^8-fluoro-2^2-(((2R,7aS)-2-fluorotetrahydro-1H-pyrrolizin-7a(5H)-yl)methoxy)-3^3-hydroxy-1^1H-6-aza-2(7,4)-quinazolina-1(4,5)-indazola-3(1,3)-piperidinacycloundecaphan-7-one], the IC50 under setting [1] was at most 100 nM.
As for `O=C1CCCc2c(F)ccc3cc(O)cc(c23)-c2ncc3c(nc(OC[C@@]45CCCN4C[C@H](F)C5)nc3c2F)N2CCOCC(CN1)C2` (stereo partly drawn) [Compound 173a, 2^8,3^7-difluoro-2^2-(((2R,7aS)-2-fluorotetrahydro-1H-pyrrolizin-7a(5H)-yl)methoxy)-3^3-hydroxy-8-aza-1(4,6)-oxazepana-2(4,7)-pyrido[4,3-d]pyrimidina-3(1,8)-naphthalenacyclononaphan-7-one], under setting [1], the 50% inhibitory concentration (IC50) was at most 100 nM.
On to `Nc1cc2c(c(Cl)c1F)CCCCC(=O)NCCC1CCCN(C1)c1nc(OC[C@@]34CCCN3C[C@H](F)C4)nc3c(F)c-2ncc13` (stereo partly drawn) [Compound 172a, 3^5-amino-3^3-chloro-2^8,3^4-difluoro-2^2-(((2R,7aS)-2-fluorotetrahydro-1H-pyrrolizin-7a(5H)-yl)methoxy)-9-aza-2(4,7)-pyrido[4,3-d]pyrimidina-1(1,3)-piperidina-3(1,2)-benzenacycloundecaphan-8-one], for which the half-maximal inhibitory concentration (IC50) under setting [1] is at most 100 nM.
Take `Nc1cc(Cl)c2c(c1)-c1ncc3c(nc(OC[C@@]45CCCN4C[C@H](F)C5)nc3c1F)N1CCCC(O)(CCNC(=O)CCCC2)C1` (stereo partly drawn) [Compound 156a, 3^5-amino-3^3-chloro-2^8-fluoro-2^2-(((2R,7aS)-2-fluorotetrahydro-1H-pyrrolizin-7a(5H)-yl)methoxy)-13-hydroxy-9-aza-2(4,7)-pyrido[4,3-d]pyrimidina-1(1,3)-piperidina-3(1,2)-benzenacycloundecaphan-8-one]: under setting [2], the IC50 is at most 100 nM.
For the compound `Nc1cc2c(c(Cl)n1)CCCCC(=O)NCCC1(O)CCCN(C1)c1nc(OC[C@@]34CCCN3C[C@H](F)C4)nc3c(F)c-2c(F)cc13` (single isomer, unassigned) [Compound 188a], the IC50 under setting [1] fell in the range of 10000 to 30000 nM.
